Where two headings read alike, the source gives them in different places. Marks after values point to notes of the source that are not given here.
Tests used:
[1] = test system: SARS-CoV-2 virions; details: 2 h at 37° C., below the limit of detection
[2] = test system: SARS-CoV-2; assay: CPE reduction assay in Vero E6 cells with pharmaceutical formulations (Example 8); type: cell-based; details: for inhibitory / antiviral effect in CPE reduction assay: FIGS. 7D-7E; for EC50: Severe acute respiratory syndrome coronavirus 2, Vero C1008, 72 h, Vero E6, 3 days, read-out: EC50, inhibition of virus-induced cell death
[3] = test system: SARS-CoV-2; assay: CPE reduction assay in Vero E6 cells with pharmaceutical formulations dissolved in DMSO (Example 6); type: cell-based; details: Severe acute respiratory syndrome coronavirus 2, Vero C1008, 72 h, read-out: EC50, inhibition of virus-induced cell death
[4] = test system: Vero E6 cells; details: for concentration after which compound-related cytotoxicity was observed: Vero E6, 3 days; for concentrations without toxicity to uninfected cells: FIG. 1B
[5] = Binding to plastic labware (coated or uncoated 96-well plates), remaining concentration by LC-MS/MS (Example 12); type: physicochemical
Procedure: Plastic labware was coated with three different coating agents: 100 mg/ml bovine serum albumin in PBS (BSA; Sigma), 1% polyethylene glycol 3350 in MilliQ water (PEG-3350; Sigma) and 0.2% polysorbate 40 in MilliQ water (Tween40; Fluka). In addition, the plastic materials with VCS by treating them with a 500 mM VCS solution in DMSO (Sigma). Labware, including all tubes, tips and culture plastics, was filled with blocking solution and incubated for 2 h at room temperature with rocking to homogenously coat the surfaces. After rinsing twice with MilliQ water, the items were left to dry at room temperature until further use in experiments. Solutions of 0.2 and 2 μM of VCS were prepared in EMEM-2% FCS and 100 μl of each VCS solution was incubated in coated 96-well plates. After a 2 h incubation at 37° C. the remaining VCS concentration was measured by validated LC-MS/MS.

[6] = Phase 2b study in de novo kidney transplant recipients (Example 3); type: in vivo, human
Procedure: De novo kidney transplant recipients were enrolled into a 6 month, Phase 2b, multi-center, randomized, open-label study. […] In addition, all subjects received induction immunosuppression with intravenous daclizumab or basiliximab (dosed per product labeling) and received concomitant treatment during the study with MMF and corticosteroids. […] Adverse reactions were recorded and renal graft rejection was assessed based on Banff classification. At 3-month and 6-month time points, adverse reactions were analyzed. Graft survival and patient survival were also recorded at the 6-month time point.

[7] = test system: SARS-CoV-2; assay: microbe, parasite or virus in culture; type: cell-based
[8] = test system: SARS-CoV-2; assay: microbe, parasite or virus in culture; type: cell-based; details: for EC50: Severe acute respiratory syndrome coronavirus 2, Vero C1008, FIG. 1C, Vero E6 CPE reduction, read-out: EC50 inhibition of SARS-CoV-2
[9] = test system: Calu-3 cells; details: plastic, Calu-3, FIG. 6D
[10] = test system: SARS-CoV-2; type: cell-based
[11] = test system: SARS-CoV-2; details: HuH7.5, Calu-3 and Vero cells; Dittmar et al.; cited from earlier work
[12] = test system: Vero E6 cells; assay: Cytotoxicity in mock-infected Vero E6 cells, pure powder stocks (Example 11); type: cell-based, African green monkey; details: solution from pure powder
Procedure: CPE reductions assays in Vero E6 cells were performed, generally as described above, except that pre-incubation of cells with the tested compounds lasted 30 minutes. Plates were incubated for three days at 37° C. and cell viability was determined using a colorimetric assay, measuring the absorption at 495 nm. The EC50 and CC50 of each compound was determined and analysis of the resultant data using non-linear regression. For each compound, at least two independent experiments (each in quadruplicate) were completed.
CPE reduction assays were performed as described above, using high purity powders of immunosuppressive drugs solubilized in DMSO. Test stock solutions were prepared from pure powders of each compound. In the case of Neoral (CsA microemulsion), CsA powder, the most commonly used CsA derivative in KTR treatment, was evaluated.

[13] = test system: Calu-3 cells; details: with cells, glass
[14] = test system: norovirus; details: compared with CsA; cited from earlier work
[15] = test system: SARS-CoV-2; assay: SARS-CoV-2 viral load reduction assay in Vero E6 cells, plaque assay and NSP4 staining (Example 2); type: cell-based
[16] = test system: SARS-CoV-2; details: prednisone + voclosporin, expected
[17] = type: physicochemical
[18] = test system: calcineurin; details: in vitro and in vivo; Kuglstatter et al.; cited from earlier work
[19] = VCS concentration after incubation in glass without cells, LC-MS/MS; type: physicochemical; details: for Conc: 3.2 μM supplied solution, without cells, glass
[20] = in vitro; details: African green monkey
[21] = Vero E6, MOI 0.015, three days, pharmaceutical formulation in DMSO, estimated concentrations
[22] = plastic labware, 0.8 μM stock solution, 2 h

## CCO [50% ethanol, ethanol]
[1]
  amount of infectious SARS-CoV-2 remaining: < 100 PFU/ml

## CO[C@H]1C[C@@H]2CC[C@@H](C)[C@@](O)(O2)C(=O)C(=O)N2CCCC[C@H]2C(=O)O[C@H]([C@H](C)C[C@@H]2CC[C@@H](OCCO)[C@H](OC)C2)CC(=O)[C@H](C)/C=C(\C)[C@@H](O)[C@@H](OC)C(=O)[C@H](C)C[C@H](C)/C=C/C=C/C=C/1C [EVL, everolimus]
[2]
  inhibitory / antiviral effect in CPE reduction assay: did not show an inhibitory effect

## COc1c(C)c2c(c(O)c1C/C=C(\C)CCC(=O)OCCN1CCOCC1)C(=O)OC2 [MMF, mycophenolate mofetil]
[2]
  inhibitory / antiviral effect in CPE reduction assay: apparent antiviral effect

## COc1c(C)c2c(c(O)c1C/C=C(\C)CCC(=O)O)C(=O)OC2 [mycophenolate, mycophenolic acid]
[3]; [21]
  EC50: 3.1 µM

## C=CC[C@@H]1/C=C(\C)C[C@H](C)C[C@H](OC)[C@H]2O[C@@](O)(C(=O)C(=O)N3CCCC[C@H]3C(=O)O[C@H](/C(C)=C/[C@@H]3CC[C@@H](O)[C@H](OC)C3)[C@H](C)[C@@H](O)CC1=O)[C@H](C)C[C@@H]2OC [tacrolimus, reference compound]
[3]; [21]
  EC50: 12 µM
[4]
  concentration after which compound-related cytotoxicity was observed: above 25 μM
[4]; listed as Tacrolimus
  concentration after which compound-related cytotoxicity was observed: > 25000 nM
[5]; plastic labware, 0.8 μM stock solution, 0 h
  Conc: 850 nM
[5]; [22]
  % rem: 76%
  Conc: 650 nM
[5]; plastic labware, 2 h
  loss by binding to plastic: 24%
[6]; standard dose 0.05 mg/kg BID, months 0-3
  blood trough level: 7 to 20 ng/mL
[6]; standard dose 0.05 mg/kg BID, months 0-6 as printed
  blood trough level: 5 to 15 ng/mL
[6]; standard dose group
  Nankivell eGFR: 69 mL/min
[6]; standard dose, 6 month
  Graft survival: 97.7%
  NODAT (new onset of diabetes after transplant) incidence: 16.4%
  Patient survival: 97.7%
[6]; standard dose, 6 month, listed as Tacrolimus
  NODAT (new onset of diabetes after transplant) incidence: 16.4%
[6]; standard dose, N = 86, 6 month post-transplantation
  Central BPAR (biopsy proven acute rejection), patients (incidence): 5 (5.8%)
[7]; Severe acute respiratory syndrome coronavirus 2, Vero C1008, solutions prepared from pure powder, read-out: EC50, inhibition of SARS-CoV-2 in Vero E6 cells
  EC50: ~15 µM
[2]
  EC50: 10 ± 1 µM
[8]
  EC50: ~25 µM
[8]; dosages up to 25 μM
  protection of infected cells from virus-induced cytopathic effects: did not protect
[9]
  cytotoxicity: did not display much cytotoxicity
[10]; 3.2 μM, glass labware, Calu-3, 24 h p.i., FIG. 6A
  reduction in SARS-CoV-2 infectious progeny titers: ~0.5 log
[11]
  activity on SARS-CoV-2 replication in a previous report: no activity

## C=C/C=C/C[C@@H](C)[C@@H](O)[C@H]1C(=O)N[C@@H](CC)C(=O)N(C)CC(=O)N(C)[C@@H](CC(C)C)C(=O)N[C@@H](C(C)C)C(=O)N(C)[C@@H](CC(C)C)C(=O)N[C@@H](C)C(=O)N[C@H](C)C(=O)N(C)[C@@H](CC(C)C)C(=O)N(C)[C@@H](CC(C)C)C(=O)N(C)[C@@H](C(C)C)C(=O)N1C [voclosporin]
[12]
  cytotoxicity in mock-infected cells compared with the pharmaceutical formulation: less cytotoxicity
[13]; 0.2 μM supplied solution, 0 h
  Conc: 0.33 µM
[13]; 0.2 μM supplied solution, 24 h, below detection limit
  Conc: <0.07* μM
[13]; 0.4 μM supplied solution, 0 h
  Conc: 0.45 µM
[13]; 0.4 μM supplied solution, 24 h
  Conc: 0.10 µM
[13]; 0.8 μM supplied solution, 0 h
  Conc: 0.99 µM
[13]; 0.8 μM supplied solution, 24 h
  Conc: 0.15 µM
[13]; 1.6 μM supplied solution, 0 h
  Conc: 1.77 µM
[13]; 1.6 μM supplied solution, 24 h
  Conc: 0.35 µM
[13]; 3.2 μM supplied solution, 0 h
  Conc: 2.91 µM
[13]; 3.2 μM supplied solution, 24 h
  Conc: 0.82 µM
[3]
  EC50: 0.27 µM
[14]
  inhibition of norovirus replication: inhibit norovirus replication in a CypA-dependent manner and more effectively than CsA
[4]; batch 4
  concentrations without toxicity to uninfected cells: up to 10 μM
[4]; unit not given
  concentrations without toxicity to uninfected cells: under 2
[15]; Vero E6, FIG. 2A, unit not given
  concentration above which viral titer was reduced to the limit of detection: above 1.00
[15]; Vero E6, FIG. 2C
  amount of SARS-CoV-2 infected cells, fluorescent staining of viral NSP4: reduced the amount of SARS-CoV-2 infected cells in a dose-dependent manner
[5]; 100 mg/ml BSA solution coating, 2 μM VCS, 0 h
  Conc: 550 ± 210 nM
[5]; 100 mg/ml BSA solution coating, 2 μM VCS, 2 h
  Conc: 100 ± 40 nM
[5]; 0.2% Tween-40 solution coating, 2 μM VCS, 0 h
  Conc: 560 ± 350 nM
[5]; 0.2% Tween-40 solution coating, 2 μM VCS, 2 h
  Conc: 90 ± 40 nM
[5]; 1% PEG-3350 solution coating, 2 μM VCS, 0 h
  Conc: 510 ± 160 nM
[5]; 1% PEG-3350 solution coating, 2 μM VCS, 2 h
  Conc: 90 ± 20 nM
[5]; Uncoated plastic, 2 μM VCS, 0 h
  Conc: 560 ± 250 nM
[5]; Uncoated plastic, 2 μM VCS, 2 h
  Conc: 130 ± 70 nM
[5]; t=0
  original stock concentration recovered: ~27%
[6]; high dose, 6 month
  NODAT (new onset of diabetes after transplant) incidence: 17.7%
[6]; high dose, 6 month, listed as Voclosporin
  NODAT (new onset of diabetes after transplant) incidence: 17.7%
[6]; high dose, N = 87, 6 month post-transplantation
  Central BPAR (biopsy proven acute rejection), patients (incidence): 2 (2.3%)
[6]; high-dose 0.8 mg/kg BID, months 0-3
  blood trough level: 60 to 85 ng/mL
[6]; high-dose 0.8 mg/kg BID, months 3-6
  blood trough level: 31 to 40 ng/mL
[6]; low dose, 6 month
  NODAT (new onset of diabetes after transplant) incidence: 1.6%
[6]; low dose, 6 month, listed as Voclosporin
  NODAT (new onset of diabetes after transplant) incidence: 1.6%
[6]; low dose, N = 84, 6 month post-transplantation
  Central BPAR (biopsy proven acute rejection), patients (incidence): 9 (10.7%)
[6]; low-dose 0.4 mg/kg BID, months 0-3
  blood trough level: 20 to 30 ng/mL
[6]; low-dose 0.4 mg/kg BID, months 3-6
  blood trough level: 11 to 20 ng/mL
[6]; mid dose, 6 month
  NODAT (new onset of diabetes after transplant) incidence: 5.7%
[6]; mid dose, 6 month, listed as Voclosporin
  NODAT (new onset of diabetes after transplant) incidence: 5.7%
[6]; mid dose, N = 77, 6 month post-transplantation
  Central BPAR (biopsy proven acute rejection), patients (incidence): 7 (9.1%)
[6]; mid-dose 0.6 mg/kg BID, months 0-3
  blood trough level: 35 to 50 ng/mL
[7]
  protection of SARS-CoV-2 infected cells compared with the pharmaceutical formulation: did not confer the same level of protection
[16]; 6 capsules of 7.9 mg BID
  SARS-CoV-2 viral load and CPEs compared to the tacrolimus group: more efficacious reduction in viral load, and less severe CPEs
[16]
  graft rejections, diabetes and adverse effects compared to the tacrolimus group: comparable or lower incidences of graft rejections, diabetes and adverse effects
[17]; after 24 h treatment with 25 μM VCS, standard plastic labware
  detected concentration in the medium of infected cells: 0.68 µM
[17]; considering a […]% reduction due to cellular binding or uptake
  VCS lost due to plastic binding: 90%
[17]; plastic labware
  bioavailable amount of what was added initially when using plastic: ~10%
[18]
  increase of binding affinity to calcineurin compared to CsA: up to five-fold
[19]; 0 h
  Conc: 2910 nM
[19]; 24 h
  Conc: 2790 nM
[19]; 24 h at 37° C. in glass without cells
  loss of compound from solution: No significant loss
[2]
  times lower EC50 compared to the other compounds tested: 18-45 times
  EC50: 0.22 ± 0.01 µM
[8]
  EC50: ~0.4 µM
[8]; Vero E6, 3 days
  concentration preserving viability of infected cells at level of mock-infected/uninfected cells: 0.8 µM
[20]
  CC50: ~4 µM
[9]
  cytotoxicity: did not
[10]
  reduction in SARS-CoV-2 infectious progeny titers: more than 1.5 log

— patent US20230183293A1, “METHODS OF TREATING OR PREVENTING CORONAVIRUS INFECTION” (priority 2021, published 2023)
